# How the values were obtained:
# CDK2/CyclinE = CDK2/CyclinE (Homo sapiens, UniProt P24941); assay: CDK2/CyclinE Flashplate assay, 96-well format, biotinylated-Rb peptide substrate; type: biochemical
# Method: This is a CDK2/CyclinE kinase assay in a 96-well Streptavidin-coated Flashplate with a biotinylated-Rb peptide substrate.
# (§1) Each point is tested in duplicate
# Biotinylated-Rb: Biotin-[…]-OH
# • 1. Prepare substrate: 1 mg/ml solution made fresh in PBS. • 2. Add 4 μg per well to the Flashplate. • 3. Incubate for 2 hours at RT. • 4. From 10 mM inhibitor stocks in DMSO, make 1 mM, 300 μM, 100 μM, 30 μM and 10 μM series of dilution in DMSO. • 5. Was the Flashplate 3 times with 300 μl PBS to remove unbound peptide substrate. • 6. Add the CDK2/CyclinE kinase: 200 ng per well, in a volume of 90 μl in kinase buffer (except for “no enzyme” control wells). • 7. Add 1 μl per well of inhibitor to test 10 μM, 3 μM, 1 μM, 0.3 μM and 0.1 μM in final concentration per 100 μl in each well. • 8. Shake gently the Flashplate 1 minute. • 9. Incubate 30 minutes on wet ice. • 10. Initiate the reaction with 10 μl kinase buffer containing 1 μM final cold ATP and 1 μCi final ^33P-ATP per well. • 11. Shake gently the Flashplate 1 minute. • 12. Incubate 45 minutes at RT (no shaking). • 13. Wash the Flashplate 3 times with 300 μl PBS
# 14. Count to detect the incorporation of ^33P-ATP by the kinase to the Rb phosphorylation site.
# CDK4/CyclinD1 = CDK4/CyclinD1 (Homo sapiens, UniProt P11802); assay: CDK4/CyclinD1 Flashplate assay, 96-well format, biotinylated-Rb peptide substrate; type: biochemical
# Chain of CDK4/CyclinD1 (P11802 whole entry, species assumed): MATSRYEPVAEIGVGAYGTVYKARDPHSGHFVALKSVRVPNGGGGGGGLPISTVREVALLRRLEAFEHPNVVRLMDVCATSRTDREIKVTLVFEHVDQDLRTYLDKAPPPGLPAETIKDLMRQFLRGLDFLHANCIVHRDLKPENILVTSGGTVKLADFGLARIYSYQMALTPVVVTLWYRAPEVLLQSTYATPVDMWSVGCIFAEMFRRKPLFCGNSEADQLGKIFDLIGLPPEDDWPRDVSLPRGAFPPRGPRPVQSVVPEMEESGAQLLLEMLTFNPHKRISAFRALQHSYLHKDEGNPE
# Chain of CDK4/CyclinD1 (P24385 whole entry partner, species assumed): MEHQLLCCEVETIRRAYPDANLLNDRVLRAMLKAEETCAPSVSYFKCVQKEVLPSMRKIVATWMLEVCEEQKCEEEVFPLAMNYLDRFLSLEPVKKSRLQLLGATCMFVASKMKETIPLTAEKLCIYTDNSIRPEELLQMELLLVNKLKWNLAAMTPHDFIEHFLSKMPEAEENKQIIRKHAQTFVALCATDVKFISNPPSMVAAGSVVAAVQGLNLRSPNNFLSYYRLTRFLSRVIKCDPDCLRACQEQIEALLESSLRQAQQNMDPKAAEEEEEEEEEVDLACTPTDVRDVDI
# Method: This is a CDK4/CyclinD1 kinase assay in a 96-well Streptavidin-coated Flashplate with a biotinylated-Rb peptide substrate.
# as §1
# Biotinylated-Rb: Biotin-[…]
# • 1. Prepare substrate: 1 mg/ml solution made fresh in PBS. • 2. Add 100 μg per well to the Flashplate. • 3. Incubate for 2 hours at RT. • 4. From 10 mM inhibitor stocks in DMSO, make 1 mM, 300 μM, 100 μM, 30 μM and 10 μM series of dilution in DMSO. • 5. Wash the Flashplate 3 times with 300 μl PBS to remove unbound peptide substrate. • 6. Add the CDK4/CyclinD1 kinase: 70 ng per well, in a volume of 90 μl in kinase buffer (except for “no enzyme” control wells). • 7. Add 1 μl^1 per well of inhibitor to test 10 μM, 3 μM, 1 μM, 0.3 μM and 0.1 μM in final concentration per 100 μl in each well. • 8. Shake gently the Flashplate 1 minute. • 9. Incubate 30 minutes on wet ice. • 10. Initiate the reaction with 10 μl kinase buffer containing 1 μM final cold ATP and 1 μCi final ^33P-ATP per well. • 11. Shake gently the Flashplate 1 minute. • 12. Incubate 45 minutes at RT (no shaking). • 13. Wash the Flashplate 3 times with 300 μl PBS • 14. Count to detect the incorporation of ^33P-ATP by the kinase to the Rb phosphorylation site.
Compound,IC50 (CDK2/CyclinE) [nM],inhibition at 10 µM (CDK4/CyclinD1) [%],other results
"CN(C)CCNC(=O)Nc1nc2cc(OS(=O)(=O)c3ccc(NC4CCCC4)cc3)ccc2[nH]1 [Example 44, 4-Cyclopentylamino-benzenesulfonic acid 2-[3-(2-dimethylamino-ethyl)-ureido]-1H-benzoimidazol-5-yl ester]",130,–,–
"O=C(NCc1cccnc1)Nc1nc2cc(OS(=O)(=O)c3ccc(-n4ccnc4)cc3)ccc2[nH]1 [Example 57-j, 4-Imidazol-1-yl-benzenesulfonic acid 2-(3-pyridin-3-ylmethyl-ureido)-1H-benzoimidazol-5-yl ester]",100,–,–
"O=C(NCc1ccccc1F)Nc1nc2cc(OS(=O)(=O)c3ccc(NC4CCCC4)cc3)ccc2[nH]1 [Example 58-h, 4-Cyclopentylamino-benzenesulfonic acid 2-[3-(2-fluoro-benzyl)-ureido]-1H-benzoimidazol-5-yl ester]",100,–,–
"COC(=O)Nc1nc2cc(OS(=O)(=O)c3ccc(-c4ccon4)s3)ccc2[nH]1 [Example 62-c, 5-Isoxazol-3-yl-thiophene-2-sulfonic acid 2-methoxycarbonylamino-1H-benzoimidazol-5-yl ester]",800,–,–
"COC(=O)Nc1nc2cc(OS(=O)(=O)c3cccc(OC(F)(F)F)c3)ccc2[nH]1 [Example 62-f, 3-Trifluoromethoxy-benzenesulfonic acid 2-methoxycarbonylamino-1H-benzoimidazol-5-yl ester]",1500,–,–
"COC(=O)Nc1nc2cc(OS(=O)(=O)c3ccccc3OC(F)(F)F)ccc2[nH]1 [Example 62-g, 2-Trifluoromethoxy-benzenesulfonic acid 2-methoxycarbonylamino-1H-benzoimidazol-5-yl ester]",1000,–,–
"COC(=O)Nc1nc2cc(OS(=O)(=O)c3ccsc3C(=O)OC)ccc2[nH]1 [Example 62-j, 3-(2-Methoxycarbonylamino-1H-benzoimidazol-5-yloxysulfonyl)-thiophene-2-carboxylic acid methyl ester]",1500,–,–
"COC(=O)Nc1nc2cc(OS(=O)(=O)c3ccc(OCC(=O)N4CCCC4)cc3)ccc2[nH]1 [Example 65, 4-(2-oxo-2-pyrrolidin-1-yl-ethoxy)-benzenesulfonic acid 2-methoxycarbonylamino-1H-benzoimidazol-5-yl-ester]",1000,–,–
"COC(=O)Nc1nc2cc(OS(=O)(=O)c3ccc(OCC(=O)NCc4ccco4)cc3)ccc2[nH]1 [Example 66-c, 4-{[(furan-2-ylmethyl)-carbamoyl]-methoxy}-benzenesulfonic acid 2-methoxycarbonylamino-1H-benzoimidazol-5-yl ester]",1000,–,–
"COc1cc(Nc2nc3cc(OS(=O)(=O)c4ccc(NC5CCCC5)cc4)ccc3[nH]2)cc(C(F)(F)F)c1 [Example 70-f, 4-Cyclopentylamino-benzenesulfonic acid 2-(3-methoxy-5-trifluoromethyl-phenylamino)-1H-benzoimidazol-5-yl ester]",5000,–,–
"COCCNc1ccc(S(=O)(=O)Oc2ccc3[nH]c(NC(=O)NCCN4CCOCC4)nc3c2)cc1 [Example 78-e, 4-(2-Methoxy-ethylamino)-benzenesulfonic acid 2-[3-(2-morpholin-4-yl-ethyl)-ureido]-1H-benzoimidazol-5-yl ester]",–,–,IC50 (CDK4/CyclinD1): 600 nM
COCCNc1ccc(S(=O)(=O)Oc2ccc3[nH]c(NC(=O)NCc4ccccn4)nc3c2)cc1 [Example 78-f],–,–,IC50 (CDK4/CyclinD1): 100 nM
"CCNC(=O)Nc1nc2cc(OS(=O)(=O)c3ccc(NCCOC)cc3)ccc2[nH]1 [Example 78-h, 4-(2-Methoxy-ethylamino)-benzenesulfonic acid 2-[3-(2-ethyl)-ureido]-1H-benzoimidazol-5-yl ester]",–,90,–
"CC(CO)Nc1ccc(S(=O)(=O)Oc2ccc3[nH]c(NC(=O)NCCN4CCOCC4)nc3c2)cc1 (centres unmarked) [Example 78-i, 4-(2-Hydroxy-1-methyl-ethylamino)-benzenesulfonic acid 2-[3-(2-morpholin-4-yl-ethyl)-ureido]-1H-benzoimidazol-5-yl ester]",–,97,–
"COCCNC(=O)Nc1nc2cc(OS(=O)(=O)c3ccc(NC(C)CO)cc3)ccc2[nH]1 (centres unmarked) [Example 78-k, 4-(2-Hydroxy-1-methyl-ethylamino)-benzenesulfonic acid 2-[3-(2-methoxy-ethyl)-ureido]-1H-benzoimidazol-5-yl ester]",–,78,–
"CCNC(=O)Nc1nc2cc(OS(=O)(=O)c3ccc(NC(C)CO)cc3)ccc2[nH]1 (centres unmarked) [Example 78-l, 4-(2-Hydroxy-1-methyl-ethylamino)-benzenesulfonic acid 2-[3-(2-ethyl)-ureido]-1H-benzoimidazol-5-yl ester]",–,100,–
O=C(NCc1ccccn1)Nc1nc2cc(OS(=O)(=O)c3ccc(OCc4ccccc4)cc3)ccc2[nH]1 [Example 78-n],–,–,inhibition of CDK4/cyclinD1 at 10 μM (CDK4/CyclinD1): 54% inhibition at 10 μM
"COCCNC(=O)Nc1nc2cc(OS(=O)(=O)c3ccc(OCc4ccccc4)cc3)ccc2[nH]1 [Example 78-o, 4-Benzyloxy-benzenesulfonic acid 2-[3-(2-methoxy-ethyl)-ureido]-1H-benzoimidazol-5-yl ester]",–,54,–
"COCCNC(=O)Nc1nc2cc(OS(=O)(=O)c3ccc(NCCN4CCOCC4)cc3)ccc2[nH]1 [Example 78-s, 4-(2-Morpholin-4-yl-ethylamino)-benzenesulfonic acid 2-[3-(2-methoxy-ethyl)-ureido]-1H-benzoimidazol-5-yl ester]",–,88,–
"O=C(NCCN1CCOCC1)Nc1nc2cc(OS(=O)(=O)c3ccc(NCC4CCNCC4)cc3)ccc2[nH]1 [Example 78-t, 4-[(Piperidin-4-ylmethyl)-amino)-benzenesulfonic acid 2-[3-(2-morpholin-4-yl-ethyl)-ureido]-1H-benzoimidazol-5-yl ester]",–,55,–
O=C(NCc1ccccn1)Nc1nc2cc(OS(=O)(=O)c3ccc(NCC4CCNCC4)cc3)ccc2[nH]1 [Example 78-u],–,–,inhibition of CDK4/cyclinD1 at 10 μM (CDK4/CyclinD1): 93% inhibition at 10 μM
"COCCNC(=O)Nc1nc2cc(OS(=O)(=O)c3ccc(NCC4CCNCC4)cc3)ccc2[nH]1 [Example 78-v, 4-[(Piperidin-4-ylmethyl)-amino]-benzenesulfonic acid 2-[3-(2-methoxy-ethyl)-ureido]-1H-benzoimidazol-5-yl ester]",–,46,–
"O=C(NCCN1CCOCC1)Nc1nc2cc(OS(=O)(=O)c3ccc(NCc4ccccc4)cc3)ccc2[nH]1 [Example 78-w, 4-Benzylamino-benzenesulfonic acid 2-[3-(2-morpholin-4-yl-ethyl)-ureido]-1H-benzoimidazol-5-yl ester]",–,90,–
"O=C(NCCF)Nc1nc2ccc(OS(=O)(=O)c3ccc(NCCF)cc3)cc2[nH]1 [Example 80-c, 4-(2-Fluoro-ethylamino)-benzenesulfonic acid 2-[3-(2-fluoro-ethyl)-ureido]-3H-benzoimidazol-5-yl ester]",–,100,–
"COCC(O)CNC(=O)Nc1nc2ccc(OS(=O)(=O)c3ccc(NCC(O)COC)cc3)cc2[nH]1 (centres unmarked) [Example 80-m, 4-(2-Hydroxy-3-methoxy-propylamino)-benzenesulfonic acid 2-[3-(2-hydroxy-3-methoxy-propyl)-ureido]-3H-benzoimidazol-5-yl ester]",–,103,–
"O=C(NCCN1CCOCC1)Nc1nc2ccc(OS(=O)(=O)c3ccc(NCc4ccccn4)cc3)cc2[nH]1 [Example 82-h, 4-[(Pyridin-2-ylmethyl)-amino]-benzene sulfonic acid 2-[3-(2-morpholin-4-yl-ethyl)-ureido]-3H-benzimidazol-5-yl ester]",–,92,–
